Measured values reported in patent US12077503B2, “Substituted cyclic amides and their use as herbicides” (FMC CORPORATION, priority 2015, dated 2024).
Read-outs that look alike come from different tables or passages of the source.

Experiments:
Assay type in all cases: in vivo
[1] = test system: blackgrass (Alopecurus myosuroides); assay: Test A postemergence; settings: Alopecurus myosuroides, post-emergence, 240 h; for pest or weed control at 125 g/ha: 125 g ai/ha, postemergence; for pest or weed control at 31 g/ha: Postemergence, 31 g ai/ha, visual injury after approx. 10 d, 0 to 100 scale, 0 no effect, 100 complete control
In short: (§1)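 Seeded soil received test chemicals as a preemergence directed spray, and seedlings at one to two leaves, 2–10 cm tall, received them postemergence, in a non-phytotoxic, surfactant-containing solvent mixture. Pots were held in a greenhouse for approximately 10 d, then rated for injury from 0, no effect, to 100, complete control.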

[2] = test system: wheat (Triticum aestivum); assay: Test A postemergence; settings: Triticum aestivum, post-emergence, 240 h; for plant injury at 125 g/ha: 125 g ai/ha, postemergence; for plant injury at 31 g/ha: Postemergence, 31 g ai/ha, visual injury after approx. 10 d, 0 to 100 scale, 0 no effect, 100 complete control
In short: as §1

corn (Zea mays) = assay: Test A postemergence; settings: Zea mays, post-emergence, 240 h; for Corn plant response rating (crop injury, 0 = no effect, 100 = complete kill) at 31 g/ha: Postemergence, 31 g ai/ha, visual injury after approx. 10 d, 0 to 100 scale, 100 complete control; for Corn plant response rating (crop injury, 0 = no effect, 100 = complete kill) at 125 g/ha: visual injury after approximately 10 d, 0 to 100 scale (0 no effect, 100 complete control)
In short: as §1

[3] = test system: giant foxtail (Setaria faberii); assay: Test A postemergence; settings: Setaria faberi, post-emergence, 240 h; for pest or weed control at 125 g/ha: 125 g ai/ha, postemergence; for pest or weed control at 31 g/ha: Postemergence, 31 g ai/ha, visual injury after approx. 10 d, 0 to 100 scale, 0 no effect, 100 complete control
In short: as §1

[4] = test system: pigweed (Amaranthus retroflexus); assay: Test A postemergence; settings: Amaranthus retroflexus, post-emergence, 240 h; for pest or weed control at 125 g/ha: 125 g ai/ha, postemergence; for pest or weed control at 31 g/ha: Postemergence, 31 g ai/ha, visual injury after approx. 10 d, 0 to 100 scale, 0 no effect, 100 complete control
In short: as §1

[5] = test system: Galium (catchweed bedstraw, Galium aparine); assay: Test A postemergence; settings: Galium, post-emergence, 240 h; for pest or weed control at 125 g/ha: 125 g ai/ha, postemergence; for pest or weed control at 31 g/ha: Postemergence, 31 g ai/ha, visual injury after approx. 10 d, 0 to 100 scale, 0 no effect, 100 complete control
In short: as §1

[6] = test system: barnyardgrass (Echinochloa crus-galli); assay: Test A postemergence; settings: Echinochloa crus-galli, post-emergence, 240 h; for pest or weed control at 125 g/ha: 125 g ai/ha, postemergence; for pest or weed control at 31 g/ha: Postemergence, 31 g ai/ha, visual injury after approx. 10 d, 0 to 100 scale, 0 no effect, 100 complete control
In short: as §1

Kochia (Kochia scoparia) = assay: Test A postemergence; settings: Bassia scoparia, post-emergence, 240 h; for pest or weed control at 125 g/ha: 125 g ai/ha, postemergence; for pest or weed control at 31 g/ha: Postemergence, 31 g ai/ha, visual injury after approx. 10 d, 0 to 100 scale, 0 no effect, 100 complete control
In short: as §1

[7] = test system: ryegrass, Italian (Italian ryegrass, Lolium multiflorum); assay: Test A postemergence; settings: Lolium multiflorum, post-emergence, 240 h; for pest or weed control at 125 g/ha: 125 g ai/ha, postemergence; for pest or weed control at 31 g/ha: Postemergence, 31 g ai/ha, visual injury after approx. 10 d, 0 to 100 scale, 0 no effect, 100 complete control
In short: as §1

[8] = test system: ragweed (common ragweed, Ambrosia elatior); assay: Test A postemergence; settings: Ambrosia artemisiifolia, post-emergence, 240 h; for pest or weed control at 125 g/ha: 125 g ai/ha, postemergence; for pest or weed control at 31 g/ha: Postemergence, 31 g ai/ha, visual injury after approx. 10 d, 0 to 100 scale, 0 no effect, 100 complete control
In short: as §1

rice (Oryra sativa) = assay: Test B flooded paddy test; settings: Oryza sativa, Flood, 250 g ai/ha; scale of 0 to 100 where 0 is no effect and 100 is complete control; read-out: Rice plant response rating
In short: (§2)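 Greenhouse paddy pots with 2-leaf stage plants received compound by direct addition to floodwater 3 cm deep, kept at that level. Scored visually at 13–15 d versus controls (0 no effect; 100 complete control).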

[9] = test system: ducksalad (Heteranthera limosa); assay: Test B flooded paddy test; settings: Heteranthera limosa, Flood, 250 g ai/ha; scale of 0 to 100 where 0 is no effect and 100 is complete control; read-out: Ducksalad plant response rating
In short: as §2

[10] = test system: sedge, umbrella (small-flower umbrella sedge, Cyperus difformis); assay: Test B flooded paddy test; settings: Cyperus difformis, Flood, 250 g ai/ha; scale of 0 to 100 where 0 is no effect and 100 is complete control; read-out: Sedge, Umbrella plant response rating
In short: as §2

[11] = test system: barnyardgrass (Echinochloa crus-galli); assay: Test B flooded paddy test; settings: Echinochloa crus-galli, Flood, 250 g ai/ha; scale of 0 to 100 where 0 is no effect and 100 is complete control; read-out: Barnyardgrass plant response rating
In short: as §2

[12] = read-out: Plant response rating, Blackgrass
[13] = read-out: Plant response rating, Wheat
[14] = read-out: Plant response rating, Foxtail, Giant
[15] = read-out: Plant response rating, Pigweed
[16] = read-out: Plant response rating, Galium
[17] = read-out: Plant response rating, Barnyardgrass
[18] = read-out: Plant response rating, Kochia
[19] = read-out: Plant response rating, Ryegrass, Italian
[20] = read-out: Plant response rating, Ragweed
[21] = visual injury after approximately 10 d, 0 to 100 scale (0 no effect, 100 complete control), read-out: Plant response rating, Blackgrass
[22] = visual injury after approximately 10 d, 0 to 100 scale (0 no effect, 100 complete control), read-out: Plant response rating, Foxtail, Giant
[23] = visual injury after approximately 10 d, 0 to 100 scale (0 no effect, 100 complete control), read-out: Plant response rating, Pigweed
[24] = visual injury after approximately 10 d, 0 to 100 scale (0 no effect, 100 complete control), read-out: Plant response rating, Galium
[25] = visual injury after approximately 10 d, 0 to 100 scale (0 no effect, 100 complete control), read-out: Plant response rating, Barnyardgrass
[26] = visual injury after approximately 10 d, 0 to 100 scale (0 no effect, 100 complete control), read-out: Plant response rating, Kochia
[27] = visual injury after approximately 10 d, 0 to 100 scale (0 no effect, 100 complete control), read-out: Plant response rating, Ryegrass, Italian
[28] = visual injury after approximately 10 d, 0 to 100 scale (0 no effect, 100 complete control), read-out: Plant response rating, Ragweed

| Compound | pest or weed control at 31 g/ha [1, 12] [%] | plant injury at 31 g/ha [2, 13] [%] | Corn plant response rating (crop injury, 0 = no effect, 100 = complete kill) at 31 g/ha (corn (Zea mays)) [%] | pest or weed control at 31 g/ha [3, 14] [%] | pest or weed control at 31 g/ha [4, 15] [%] | pest or weed control at 31 g/ha [5, 16] [%] | pest or weed control at 31 g/ha [6, 17] [%] | pest or weed control at 31 g/ha (Kochia (Kochia scoparia); [18]) [%] | pest or weed control at 31 g/ha [7, 19] [%] | pest or weed control at 31 g/ha [8, 20] [%] | pest or weed control at 250 g/ha (rice (Oryra sativa)) [%] | pest or weed control at 250 g/ha [9] [%] | pest or weed control at 250 g/ha [10] [%] | pest or weed control at 250 g/ha [11] [%] | pest or weed control at 125 g/ha [1, 21] [%] | Corn plant response rating (crop injury, 0 = no effect, 100 = complete kill) at 125 g/ha (corn (Zea mays); 125 g ai/ha, postemergence) [%] | pest or weed control at 125 g/ha [3, 22] [%] | pest or weed control at 125 g/ha [4, 23] [%] | pest or weed control at 125 g/ha [5, 24] [%] | pest or weed control at 125 g/ha [6, 25] [%] | also measured |
| --- | --- | --- | --- | --- | --- | --- | --- | --- | --- | --- | --- | --- | --- | --- | --- | --- | --- | --- | --- | --- | --- |
| Cc1cc(F)cc([C@H]2CN(C)C(=O)[C@@H]2C(=O)Nc2cccc(F)c2C)c1 [Compound 802] | 20 | 0 | 20 | 70 | 30 | 0 | 80 | 20 | 0 | 0 | 20 | 100 | 0 | 90 |  |  |  |  |  |  | pest or weed control at 125 g/ha ([1]; visual injury rating after approximately 10 d, read-out: Blackgrass plant response rating (0 to 100 scale, 0 no effect, 100 complete control)): 60%; plant injury at 125 g/ha ([2]; visual injury rating after approximately 10 d, read-out: Wheat plant response rating (0 to 100 scale, 0 no effect, 100 complete control)): 30%; plant injury at 125 g/ha (corn (Zea mays); 125 g ai/ha, postemergence, visual injury rating after approximately 10 d, read-out: Corn plant response rating (0 to 100 scale, 0 no effect, 100 complete control)): 70%; pest or weed control at 125 g/ha ([3]; visual injury rating after approximately 10 d, read-out: Foxtail, Giant plant response rating (0 to 100 scale, 0 no effect, 100 complete control)): 90%; pest or weed control at 125 g/ha ([4]; visual injury rating after approximately 10 d, read-out: Pigweed plant response rating (0 to 100 scale, 0 no effect, 100 complete control)): 40%; pest or weed control at 125 g/ha ([5]; visual injury rating after approximately 10 d, read-out: Galium plant response rating (0 to 100 scale, 0 no effect, 100 complete control)): 60%; pest or weed control at 125 g/ha ([6]; visual injury rating after approximately 10 d, read-out: Barnyardgrass plant response rating (0 to 100 scale, 0 no effect, 100 complete control)): 80%; pest or weed control at 125 g/ha (Kochia (Kochia scoparia); visual injury rating after approximately 10 d, read-out: Kochia plant response rating (0 to 100 scale, 0 no effect, 100 complete control)): 40%; pest or weed control at 125 g/ha ([7]; visual injury rating after approximately 10 d, read-out: Ryegrass, Italian plant response rating (0 to 100 scale, 0 no effect, 100 complete control)): 40%; pest or weed control at 125 g/ha ([8]; visual injury rating after approximately 10 d, read-out: Ragweed plant response rating (0 to 100 scale, 0 no effect, 100 complete control)): 30% |
| Cc1ccc(NC(=O)[C@H]2C(=O)N(C)C[C@@H]2c2cc(F)cc(F)c2)c(F)c1 [Compound 760] |  |  |  |  |  |  |  |  |  |  | 0 | 80 | 0 | 50 | 0 | 0 | 80 | 0 | 0 | 80 | plant injury at 125 g/ha ([2]; visual injury after approximately 10 d, 0 to 100 scale (0 no effect, 100 complete control), read-out: Plant response rating, Wheat): 0%; pest or weed control at 125 g/ha (Kochia (Kochia scoparia); [26]): 0%; pest or weed control at 125 g/ha [7, 27]: 0%; pest or weed control at 125 g/ha [8, 28]: 0% |
| Cc1cc([C@H]2CN(C)C(=O)[C@@H]2C(=O)Nc2ccccc2F)cc(C)c1C [Compound 797] | 0 | 0 | 60 | 80 | 0 | 0 | 90 | 0 | 0 | 0 | 25 | 90 | 0 | 90 | 0 | 70 | 90 | 20 | 30 | 90 | pest or weed control at 125 g/ha (Kochia (Kochia scoparia); [26]): 0%; pest or weed control at 125 g/ha [7, 27]: 40%; pest or weed control at 125 g/ha [8, 28]: 0% |
